Experimental data from ChEMBL document CHEMBL3046329, “Sensitivity to silthiofam, tebuconazole and difenoconazole of Gaeumannomyces graminis var. tritici isolates from China” (Pest Manag Sci, 2012).
Converted amounts (≈) assume the structure as drawn.

How the values were obtained:
Gaeumannomyces tritici [1] = test: Antifungal activity against sithiofam-resistant Gaeumannomyces graminis var. tritici isolate JS07 expressing C1 genetic cluster assessed as reduction in fungal colony diameter after 4 days; type: functional, organism-based; settings: isolate JS07, 96 h
Gaeumannomyces tritici [2] = test: Antifungal activity against sithiofam-resistant Gaeumannomyces graminis var. tritici isolate JS05 expressing C1 genetic cluster assessed as reduction in fungal colony diameter after 4 days; type: functional, organism-based; settings: isolate JS05, 96 h
Gaeumannomyces tritici [3] = test: Antifungal activity against sithiofam-resistant Gaeumannomyces graminis var. tritici isolate JS12 expressing C1 genetic cluster assessed as reduction in fungal colony diameter after 4 days; type: functional, organism-based; settings: isolate JS12, 96 h
Gaeumannomyces tritici [4] = test: Antifungal activity against sithiofam-sensitive Gaeumannomyces graminis var. tritici isolate JS10 expressing C2 genetic cluster assessed as reduction in fungal colony diameter after 4 days; type: functional, organism-based; settings: isolate JS10, 96 h
Gaeumannomyces tritici [5] = test: Antifungal activity against sithiofam-resistant Gaeumannomyces graminis var. tritici isolate HN20 expressing C1 genetic cluster assessed as reduction in fungal colony diameter after 4 days; type: functional, organism-based; settings: isolate HN20, 96 h
Gaeumannomyces tritici [6] = test: Antifungal activity against sithiofam-sensitive Gaeumannomyces graminis var. tritici isolate HN18 expressing C2 genetic cluster assessed as reduction in fungal colony diameter after 4 days; type: functional, organism-based; settings: isolate HN18, 96 h
Gaeumannomyces tritici [7] = test: Antifungal activity against sithiofam-sensitive Gaeumannomyces graminis var. tritici isolate HN28 expressing C2 genetic cluster assessed as reduction in fungal colony diameter after 4 days; type: functional, organism-based; settings: isolate HN28, 96 h
Gaeumannomyces tritici [8] = test: Antifungal activity against sithiofam-resistant Gaeumannomyces graminis var. tritici isolate HN27 expressing […] genetic cluster assessed as reduction in fungal colony diameter after 4 days; type: functional, organism-based; settings: isolate HN27, 96 h
Gaeumannomyces tritici [9] = test: Antifungal activity against sithiofam-sensitive Gaeumannomyces graminis var. tritici isolate HN25 expressing C2 genetic cluster assessed as reduction in fungal colony diameter after 4 days; type: functional, organism-based; settings: isolate HN25, 96 h
Gaeumannomyces tritici [10] = test: Antifungal activity against sithiofam-sensitive Gaeumannomyces graminis var. tritici isolate HN24 expressing C2 genetic cluster assessed as reduction in fungal colony diameter after 4 days; type: functional, organism-based; settings: isolate HN24, 96 h
Gaeumannomyces tritici [11] = test: Antifungal activity against sithiofam-resistant Gaeumannomyces graminis var. tritici isolate HN12 expressing C1 genetic cluster assessed as reduction in fungal colony diameter after 4 days; type: functional, organism-based; settings: isolate HN12, HN12, 96 h
Gaeumannomyces tritici [12] = test: Antifungal activity against sithiofam-sensitive Gaeumannomyces graminis var. tritici isolate HN11 expressing C2 genetic cluster assessed as reduction in fungal colony diameter after 4 days; type: functional, organism-based; settings: isolate HN11, HN11, 96 h
Gaeumannomyces tritici [13] = test: Antifungal activity against sithiofam-resistant Gaeumannomyces graminis var. tritici isolate HN08 expressing C1 genetic cluster assessed as reduction in fungal colony diameter after 4 days; type: functional, organism-based; settings: isolate HN08, 96 h
Gaeumannomyces tritici [14] = test: Antifungal activity against sithiofam-resistant Gaeumannomyces graminis var. tritici isolate HN07 expressing C1 genetic cluster assessed as reduction in fungal colony diameter after 4 days; type: functional, organism-based; settings: isolate HN07, 96 h
Gaeumannomyces tritici [15] = test: Antifungal activity against sithiofam-resistant Gaeumannomyces graminis var. tritici isolate HN02 expressing C1 genetic cluster assessed as reduction in fungal colony diameter after 4 days; type: functional, organism-based; settings: isolate HN02, 96 h
Gaeumannomyces tritici [16] = test: Antifungal activity against sithiofam-resistant Gaeumannomyces graminis var. tritici isolate HN01 expressing C1 genetic cluster assessed as reduction in fungal colony diameter after 4 days; type: functional, organism-based; settings: isolate HN01, 96 h
Gaeumannomyces tritici [17] = test: Antifungal activity against sithiofam-sensitive Gaeumannomyces graminis var. tritici isolate AH08 expressing C2 genetic cluster assessed as reduction in fungal colony diameter after 4 days; type: functional, organism-based; settings: isolate AH08, 96 h
Gaeumannomyces tritici [18] = test: Antifungal activity against sithiofam-sensitive Gaeumannomyces graminis var. tritici isolate HN17 expressing C2 genetic cluster assessed as reduction in fungal colony diameter after 4 days; type: functional, organism-based; settings: isolate HN17, 96 h
Gaeumannomyces tritici [19] = test: Antifungal activity against sithiofam-resistant Gaeumannomyces graminis var. tritici isolate HN16 expressing C1 genetic cluster assessed as reduction in fungal colony diameter after 4 days; type: functional, organism-based; settings: isolate HN16, 96 h
Gaeumannomyces tritici [20] = test: Antifungal activity against sithiofam-sensitive Gaeumannomyces graminis var. tritici isolate JS01 expressing C1 genetic cluster assessed as reduction in fungal colony diameter after 4 days; type: functional, organism-based; settings: isolate JS01, 96 h
Gaeumannomyces tritici [21] = test: Antifungal activity against sithiofam-sensitive Gaeumannomyces graminis var. tritici isolate SD06 expressing C2 genetic cluster assessed as reduction in fungal colony diameter after 4 days; type: functional, organism-based; settings: isolate SD06, 96 h
Gaeumannomyces tritici [22] = test: Antifungal activity against sithiofam-sensitive Gaeumannomyces graminis var. tritici isolate SD05 expressing C2 genetic cluster assessed as reduction in fungal colony diameter after 4 days; type: functional, organism-based; settings: isolate SD05, 96 h
Gaeumannomyces tritici [23] = test: Antifungal activity against sithiofam-sensitive Gaeumannomyces graminis var. tritici isolate SD03 expressing C2 genetic cluster assessed as reduction in fungal colony diameter after 4 days; type: functional, organism-based; settings: isolate SD03, 96 h
Gaeumannomyces tritici [24] = test: Antifungal activity against sithiofam-sensitive Gaeumannomyces graminis var. tritici isolate AH11 expressing C2 genetic cluster assessed as reduction in fungal colony diameter after 4 days; type: functional, organism-based; settings: isolate AH11, 96 h
Gaeumannomyces tritici [25] = test: Antifungal activity against sithiofam-resistant Gaeumannomyces graminis var. tritici isolate AH10 expressing C1 genetic cluster assessed as reduction in fungal colony diameter after 4 days; type: functional, organism-based; settings: isolate AH10, 96 h
Gaeumannomyces tritici [26] = test: Antifungal activity against sithiofam-sensitive Gaeumannomyces graminis var. tritici isolate SD01 expressing C2 genetic cluster assessed as reduction in fungal colony diameter after 4 days; type: functional, organism-based; settings: isolate SD01, 96 h
Gaeumannomyces tritici [27] = test: Antifungal activity against sithiofam-sensitive Gaeumannomyces graminis var. tritici isolate HN32 expressing C2 genetic cluster assessed as reduction in fungal colony diameter after 4 days; type: functional, organism-based; settings: isolate HN32, 96 h
Gaeumannomyces tritici [28] = test: Antifungal activity against sithiofam-sensitive Gaeumannomyces graminis var. tritici isolate HN31 expressing C3 genetic cluster assessed as reduction in fungal colony diameter after 4 days; type: functional, organism-based; settings: isolate HN31, 96 h
Gaeumannomyces tritici [29] = test: Antifungal activity against sithiofam-sensitive Gaeumannomyces graminis var. tritici isolate HN30 expressing C2 genetic cluster assessed as reduction in fungal colony diameter after 4 days; type: functional, organism-based; settings: isolate HN30, 96 h
Gaeumannomyces tritici [30] = test: Antifungal activity against sithiofam-sensitive Gaeumannomyces graminis var. tritici isolate SD05 expressing C2 genetic cluster assessed as fungal induced root necrosis administered to wheat cultivar Huaimai 30 seeds grown on fungal infested soils at 0.25 g ai/kg measured after 10 days (reference value: 27.71%); type: functional
Gaeumannomyces tritici [31] = test: Antifungal activity against sithiofam-sensitive Gaeumannomyces graminis var. tritici isolate SD04 expressing C2 genetic cluster assessed as fungal induced root necrosis administered to wheat cultivar Huaimai 30 seeds grown on fungal infested soils at 0.25 g ai/kg measured after 10 days (reference value: 27.34%); type: functional
Gaeumannomyces tritici [32] = test: Antifungal activity against sithiofam-resistant Gaeumannomyces graminis var. tritici isolate AH14 expressing C1 genetic cluster assessed as fungal induced root necrosis administered to wheat cultivar Huaimai 30 seeds grown on fungal infested soils at 0.25 g ai/kg measured after 10 days (reference value: 28.16%); type: functional
Gaeumannomyces tritici [33] = test: Antifungal activity against sithiofam-resistant Gaeumannomyces graminis var. tritici isolate AH02 expressing C1 genetic cluster assessed as fungal induced root necrosis administered to wheat cultivar Huaimai 30 seeds grown on fungal infested soils at 0.25 g ai/kg measured after 10 days (reference value: 28.16%); type: functional

Structure (SMILES)	EC50 (Gaeumannomyces tritici [1])	EC50 (Gaeumannomyces tritici [2])	EC50 (Gaeumannomyces tritici [3])	EC50 (Gaeumannomyces tritici [4])	EC50 (Gaeumannomyces tritici [5])	EC50 (Gaeumannomyces tritici [6])	EC50 (Gaeumannomyces tritici [7])	EC50 (Gaeumannomyces tritici [8])	EC50 (Gaeumannomyces tritici [9])	EC50 (Gaeumannomyces tritici [10])	EC50 (Gaeumannomyces tritici [11])	EC50 (Gaeumannomyces tritici [12])	EC50 (Gaeumannomyces tritici [13])	EC50 (Gaeumannomyces tritici [14])	EC50 (Gaeumannomyces tritici [15])	EC50 (Gaeumannomyces tritici [16])	EC50 (Gaeumannomyces tritici [17])	EC50 (Gaeumannomyces tritici [18])	EC50 (Gaeumannomyces tritici [19])	EC50 (Gaeumannomyces tritici [20])	further results
CC1COC(Cn2cncn2)(c2ccc(Oc3ccc(Cl)cc3)cc2Cl)O1 (stereo unspecified) [DIFENOCONAZOLE]	0.201 µg/mL (≈ 0.495 µM)	0.213 µg/mL (≈ 0.525 µM)	0.116 µg/mL (≈ 0.287 µM)	0.313 µg/mL (≈ 0.771 µM)	0.569 µg/mL (≈ 1.4 µM)	0.313 µg/mL (≈ 0.769 µM)	0.0604 µg/mL (≈ 0.149 µM)	0.226 µg/mL (≈ 0.557 µM)	0.154 µg/mL (≈ 0.38 µM)	0.111 µg/mL (≈ 0.274 µM)	0.588 µg/mL (≈ 1.45 µM)	0.164 µg/mL (≈ 0.403 µM)	0.216 µg/mL (≈ 0.533 µM)	0.481 µg/mL (≈ 1.18 µM)	0.236 µg/mL (≈ 0.58 µM)	0.389 µg/mL (≈ 0.958 µM)	0.019 µg/mL (≈ 0.0468 µM)	0.175 µg/mL (≈ 0.432 µM)	1.01 µg/mL (≈ 2.49 µM)	0.142 µg/mL (≈ 0.349 µM)	EC50 (Gaeumannomyces tritici [21]): 0.18 µg/mL (≈ 0.443 µM); EC50 (Gaeumannomyces tritici [22]): 0.694 µg/mL (≈ 1.71 µM); EC50 (Gaeumannomyces tritici [23]): 0.53 µg/mL (≈ 1.31 µM); EC50 (Gaeumannomyces tritici [24]): 0.129 µg/mL (≈ 0.317 µM); EC50 (Gaeumannomyces tritici [25]): 0.128 µg/mL (≈ 0.314 µM); EC50 (Gaeumannomyces tritici [26]): 0.782 µg/mL (≈ 1.93 µM); EC50 (Gaeumannomyces tritici [27]): 0.359 µg/mL (≈ 0.885 µM); EC50 (Gaeumannomyces tritici [28]): 0.283 µg/mL (≈ 0.697 µM); EC50 (Gaeumannomyces tritici [29]): 0.102 µg/mL (≈ 0.251 µM)
C=CCNC(=O)c1c([Si](C)(C)C)sc(C)c1C [SILTHIOFAM]	24.7 µg/mL (≈ 92.2 µM)	24.7 µg/mL (≈ 92.2 µM)	48.4 µg/mL (≈ 181 µM)	0.0009 µg/mL (≈ 0.00336 µM)	24.8 µg/mL (≈ 92.7 µM)	0.0005 µg/mL (≈ 0.00187 µM)	0.0005 µg/mL (≈ 0.00187 µM)	121 µg/mL (≈ 451 µM)	0.0011 µg/mL (≈ 0.00411 µM)	0.0003 µg/mL (≈ 0.00112 µM)	53 µg/mL (≈ 198 µM)	0.0007 µg/mL (≈ 0.00262 µM)	62.4 µg/mL (≈ 233 µM)	29.8 µg/mL (≈ 112 µM)	88.1 µg/mL (≈ 329 µM)	82.7 µg/mL (≈ 309 µM)	0.0013 µg/mL (≈ 0.00486 µM)	0.001 µg/mL (≈ 0.00374 µM)	28.6 µg/mL (≈ 107 µM)	0.0002 µg/mL (≈ 0.000748 µM)	Activity (Gaeumannomyces tritici [30]): 3.19%; Activity (Gaeumannomyces tritici [31]): 1.02%; Activity (Gaeumannomyces tritici [32]): 28.42%; Activity (Gaeumannomyces tritici [33]): 28%; EC50 (Gaeumannomyces tritici [21]): 0.0012 µg/mL (≈ 0.00449 µM); EC50 (Gaeumannomyces tritici [22]): 0.0007 µg/mL (≈ 0.00262 µM); EC50 (Gaeumannomyces tritici [23]): 0.0009 µg/mL (≈ 0.00336 µM); EC50 (Gaeumannomyces tritici [24]): 0.0004 µg/mL (≈ 0.0015 µM); EC50 (Gaeumannomyces tritici [25]): 57.6 µg/mL (≈ 215 µM); EC50 (Gaeumannomyces tritici [26]): 0.0008 µg/mL (≈ 0.00299 µM); EC50 (Gaeumannomyces tritici [27]): 0.0004 µg/mL (≈ 0.0015 µM); EC50 (Gaeumannomyces tritici [28]): 0.0004 µg/mL (≈ 0.0015 µM); EC50 (Gaeumannomyces tritici [29]): 0.0014 µg/mL (≈ 0.00523 µM)
CC(C)(C)C(O)(CCc1ccc(Cl)cc1)Cn1cncn1 (stereo unspecified) [TEBUCONAZOLE]	0.0584 µg/mL (≈ 0.19 µM)	0.0575 µg/mL (≈ 0.187 µM)	0.0274 µg/mL (≈ 0.089 µM)	0.103 µg/mL (≈ 0.334 µM)	0.104 µg/mL (≈ 0.338 µM)	0.0727 µg/mL (≈ 0.236 µM)	0.18 µg/mL (≈ 0.584 µM)	0.0536 µg/mL (≈ 0.174 µM)	0.086 µg/mL (≈ 0.279 µM)	0.0472 µg/mL (≈ 0.153 µM)	0.076 µg/mL (≈ 0.247 µM)	0.0562 µg/mL (≈ 0.183 µM)	0.057 µg/mL (≈ 0.185 µM)	0.0513 µg/mL (≈ 0.167 µM)	0.0364 µg/mL (≈ 0.118 µM)	0.0198 µg/mL (≈ 0.0643 µM)	0.0489 µg/mL (≈ 0.159 µM)	0.0398 µg/mL (≈ 0.129 µM)	0.0599 µg/mL (≈ 0.195 µM)	0.0325 µg/mL (≈ 0.106 µM)	EC50 (Gaeumannomyces tritici [21]): 0.0646 µg/mL (≈ 0.21 µM); EC50 (Gaeumannomyces tritici [22]): 0.0688 µg/mL (≈ 0.224 µM); EC50 (Gaeumannomyces tritici [23]): 0.0983 µg/mL (≈ 0.319 µM); EC50 (Gaeumannomyces tritici [24]): 0.0395 µg/mL (≈ 0.128 µM); EC50 (Gaeumannomyces tritici [25]): 0.112 µg/mL (≈ 0.363 µM); EC50 (Gaeumannomyces tritici [26]): 0.176 µg/mL (≈ 0.573 µM); EC50 (Gaeumannomyces tritici [27]): 0.238 µg/mL (≈ 0.772 µM); EC50 (Gaeumannomyces tritici [28]): 0.111 µg/mL (≈ 0.362 µM); EC50 (Gaeumannomyces tritici [29]): 0.123 µg/mL (≈ 0.401 µM)
